How the values were obtained:
[1] = test system: D30N HIV strain; settings: concentration inhibiting 90% of mammalian cell death induced by HIV infection; Patick et al.; read-out: EC90 (μM) from standard antiviral assay with: D30N HIV strain; cited from earlier work
[2] = test system: Wild-type HIV; settings: concentration inhibiting 90% of mammalian cell death induced by HIV infection; Patick et al.; read-out: EC90 (μM) from standard antiviral assay with: Wild-type HIV; cited from earlier work
[3] = target: wild-type HIV protease (Human immunodeficiency virus type 1 group M subtype B, UniProt P12497); experiment: cell-based
Procedure: (§1) Stock solutions of the FDA-approved HIV protease inhibitors were prepared by solubilizing the drugs in 100% dimethyl sulfoxide (DMSO) at 100 mM. A single colony of the cells bearing the respective plasmid, namely pTF-PR^WT or pTF-PR^mutant, was inoculated into 2 ml of Luria-Bertani (LB) medium with 100 μg of ampicillin/ml and grown overnight at 37° C. The culture was diluted 100-fold with fresh Luria-Bertani medium containing 100 μg of ampicillin/ml and incubated at 37° C. for 2 h until the optical density at 630 nm (OD630) of the cells reached 0.6. The cells were then induced for protein expression with 0.2% arabinose and simultaneously treated with either HIV protease inhibitors dissolved in 2% DMSO at the indicated concentrations or 2% DMSO alone as the negative control. After incubation for an additional 3 h at 30° C., the cells were collected for Western blot analysis of proteins.
Cell-Based β-galactosidase Activity Assay. Cell-based β-galactosidase activity assays were performed basically as described in Example 4. E. coli cells bearing each of the expression plasmids were grown as described, except that after incubation at 37° C. for 2 h to an OD630 of 0.6, the cells were transferred in triplicate sets to the wells of 96-well microplates. The cells were subjected to simultaneous induction for recombinant protein expression as well as drug treatment with HIV protease inhibitors at the indicated concentrations in 2% DMSO. For the screening of the compound library generated by the amide-forming reaction (see Example 5), DMF was used instead of DMSO. After incubation for an additional 3 h at 30° C., the cells were made permeable for the entry of the β-galactosidase substrate, (ortho-nitrophenyl-β-D-galactopyranoside (ONPG)), by diluting the cells in assay buffer (10 mM NaP, pH 7.3, 10 mM NaCl, 1 mM MgSO4, 5 mM β-mercaptoethanol) that contained 50 μg of polymyxin B sulfate/ml and 2%Triton X-100 (Schupp et al., BioTechniques 19:18-20 (1995)). The cells were then incubated for 5 min at room temperature in 96-well microplates. After the OD630 of the cells was determined by using an Ultramark microplate imaging system (Bio-Rad, Hercules, Calif.), ONPG was added at a final concentration of 200 μM to start the enzymatic reactions at 37° C. Changes in the OD415, indicating the production of ortho-nitrophenol, were continuously monitored with the Ultramark microplate imaging system. The linear portion of the progression curve was used to determine the initial velocity with MATLAB (The MathWorks Inc., Natick, Mass.). The difference in OD415 (ΔA) was converted to the increase in product concentration (ΔC) by using the equation ΔA=ε(ΔC)(L), where L is the light path of 0.4 cm and the extinction coefficient (ε) of ortho-nitrophenol was 3,500 M^−1 cm^−1 under the assay conditions. The β-galactosidase activity was determined as the number of micromoles of ortho-nitrophenol produced per minute at 37° C. The β-galactosidase activity was then normalized against the amount of total cellular proteins, which was estimated by assuming that an OD630 unit corresponds to 1.4×10^9 cells and that every 10^9 cells yield approximately 150 μg of proteins (Pardee et al., J. Mol. Biol. 1:165-68 (1959)).
ββ-galactosidase activity assays were performed as described in Example 8. After drug treatment for 3 h, the cells were processed for detection of β-galactosidase activity of whole cells in 96-well microplates as described. Cells coexpressing TF-PR^WT and β-GalPR were treated with HIV protease inhibitors at the concentrations between 0 and 400 μM. β-galactosidase activities (micromoles per minute per milligram of total protein) in the treated E. coli cells were determined.
The β-galactosidase activity detected in E. coli coexpressing TF-PR^WT and β-Gal^PR in the absence of HIV protease inhibitors was referred to as 0% inhibition.

[4] = target: T1, D30N HIV protease (Human immunodeficiency virus type 1 group M subtype B, UniProt P12497, D518N); experiment: cell-based; parameters: species or system HIV-1
T1 construct: used to replace the wild-type HIV protease domain in the two-cistron expression construct; Met-Gly (my reading of primer TF-F) + native transframe region (56 aa directly upstream of the protease in Gag-Pol) (N); Lys-Glu-Glu (my translation of primer PR-R: Shine-Dalgarno in frame before the stop codon) (C); expressed in transfected cells; host or cells: E. coli bearing plasmid pTF-PR^D30N
Procedure: (§2) Cell-Based β-galactosidase Activity Assay. Cell-based β-galactosidase activity assays were performed basically as described in Example 4. E. coli cells bearing each of the expression plasmids were grown as described, except that after incubation at 37° C. for 2 h to an OD630 of 0.6, the cells were transferred in triplicate sets to the wells of 96-well microplates. The cells were subjected to simultaneous induction for recombinant protein expression as well as drug treatment with HIV protease inhibitors at the indicated concentrations in 2% DMSO. For the screening of the compound library generated by the amide-forming reaction (see Example 5), DMF was used instead of DMSO. […] After the OD630 of the cells was determined by using an Ultramark microplate imaging system (Bio-Rad, Hercules, Calif.), ONPG was added at a final concentration of 200 μM to start the enzymatic reactions at 37° C. Changes in the OD415, indicating the production of ortho-nitrophenol, were continuously monitored with the Ultramark microplate imaging system. […] The β-galactosidase activity was determined as the number of micromoles of ortho-nitrophenol produced per minute at 37° C. […]

[5] = target: T2, I84V HIV protease (Human immunodeficiency virus type 1 group M subtype B, UniProt P12497, I572V); experiment: E. coli-based assay system: β-galactosidase activity, cells co-expressing TF-PR^I84V and β-Gal^PR; assay type: cell-based, HIV-1
T2 construct: used to replace the wild-type HIV protease domain in the two-cistron system to construct the plasmid pTF-PR^I84V; Met-Gly (my reading of primer TF-F) + native transframe region (56 aa directly upstream of the protease in Gag-Pol) (N); Lys-Glu-Glu (my translation of primer PR-R: Shine-Dalgarno in frame before the stop codon) (C); expressed in transfected cells; host or cells: E. coli bearing plasmid pTF-PR^I84V
Procedure: as §2

[6] = target: T3, HIV protease precursor TF-PR^WT (Human immunodeficiency virus type 1 group M subtype B, UniProt P12497, L434F); experiment: cell-based; parameters: species or system HIV-1
T3 construct: Met-Gly (my reading of primer TF-F) + native transframe region (TFP 8 aa + p6pol 48 aa = 56 aa directly upstream of the protease in Gag-Pol); removed by autoprocessing (N, cleaved yes); expressed in transfected cells; host or cells: E. coli DH5α bearing plasmid pTF-PR^WT (pBAD, arabinose-induced)
Procedure: as §1

Row | Compound | EC90 [1] [µM] | EC90 [2] [µM] | IC50 [3] [nM] | IC50 [4] [nM] | IC50 [6] [nM] | further results
1 | CC(C)c1nc(CN(C)C(=O)N[C@H](C(=O)N[C@@H](Cc2ccccc2)C[C@H](O)[C@H](Cc2ccccc2)NC(=O)OCc2cncs2)C(C)C)cs1 [RTV, ritonavir] | 0.01 | 0.05 |  |  |  | 
2 | CC(C)(C)NC(=O)[C@@H]1C[C@@H]2CCCC[C@@H]2CN1C[C@@H](O)[C@H](Cc1ccccc1)NC(=O)[C@H](CC(N)=O)NC(=O)c1ccc2ccccc2n1 [SQV, saquinavir] | 0.01 | 0.03 |  |  |  | 
3 | CC(C)CN(C[C@@H](O)[C@H](Cc1ccccc1)NC(=O)O[C@H]1CCOC1)S(=O)(=O)c1ccc(N)cc1 [APV, amprenavir] |  |  | 53400 ± 17400 | 35900 ± 17700 | 1600 to 8000 | IC50 [5]: 280000 ± 39000 nM
4 | pepstatin A |  |  |  |  |  | inhibition of β-galactosidase activity (so in the source) ([3]; E. coli cells coexpressing TF-PR^WT and β-Gal^PR): did not inhibit; cell permeability ([3]; E. coli cells, inferred from lack of inhibition): low cell permeability; inhibitory effects in the assay procedures described herein ([3]; up to 5 mM): failed to exert any inhibitory effects
5 | Cc1c(O)cccc1C(=O)N[C@@H](CSc1ccccc1)[C@H](O)CN1C[C@H]2CCCC[C@H]2C[C@H]1C(=O)NC(C)(C)C [NFV, nelfinavir] | 0.18 | 0.03 | 48400 ± 4800 | > 400000 | 1600 to 8000 | inhibition at 400 µM ([3]; read-out: % inhibition against the wild-type HIV protease): 75%
6 | CC(C)(C)NC(=O)[C@@H]1CN(Cc2cccnc2)CCN1C[C@@H](O)C[C@@H](Cc1ccccc1)C(=O)N[C@H]1c2ccccc2C[C@H]1O [IDV, indinavir] | 0.01 | 0.06 |  |  |  | 

— patent US20050244819A1, “Assay system for screening protease inhibitors” (priority 2004, published 2005)
